Data: BindingDB's records for patent US12215173 (Humanwell Pharmaceutical US, 2025)
Square brackets hold non-standard residues; d marks the D form. Peptide text beside a SMILES is read from it. * marks the point of attachment. Pyrrolidino(3-NH2-3-COOH) = NC1(C(=O)O)CCN(*)C1; dTic = O=C(O)[C@H]1Cc2ccccc2CN1

What was measured:
Assay in all cases: Opioid Receptor Binding Assay
[1] = target: Mu-type opioid receptor (Homo sapiens, UniProt P35372)
Method: (§1) The assay buffers used for opioid receptor binding studies were 50 mM Tris HCl (pH 7.4) for KOR, 50 mM Tris HCl (pH 7.4) with 5 mM MgCl2 for MOR, and 50 mM Tris HCl (pH 7.4) with 10 mM MgCl2 plus 1 mM EDTA for DOR. Wash buffer contained 50 mM Tris HCl at pH 7.4. […] DADLE, which were used as the competing radioligands for mu, kappa and delta receptors, respectively.

[2] = target: Kappa-type opioid receptor (Homo sapiens, UniProt P41145)
Method: as §1

[3] = target: Delta-type opioid receptor (Homo sapiens, UniProt P41143)
Sequence of Delta-type opioid receptor (P41143 whole entry): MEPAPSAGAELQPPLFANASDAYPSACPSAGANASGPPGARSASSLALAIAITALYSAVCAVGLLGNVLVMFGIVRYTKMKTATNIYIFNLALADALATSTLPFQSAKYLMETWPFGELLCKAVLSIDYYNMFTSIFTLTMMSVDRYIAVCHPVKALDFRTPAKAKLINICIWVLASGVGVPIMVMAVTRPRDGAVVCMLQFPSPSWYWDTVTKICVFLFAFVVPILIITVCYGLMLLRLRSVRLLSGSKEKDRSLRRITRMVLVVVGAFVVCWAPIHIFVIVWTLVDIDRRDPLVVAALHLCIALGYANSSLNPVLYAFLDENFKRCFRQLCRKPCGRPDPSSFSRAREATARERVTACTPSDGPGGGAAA
Method: as §1

Sequence of Mu-type opioid receptor (P35372 whole entry): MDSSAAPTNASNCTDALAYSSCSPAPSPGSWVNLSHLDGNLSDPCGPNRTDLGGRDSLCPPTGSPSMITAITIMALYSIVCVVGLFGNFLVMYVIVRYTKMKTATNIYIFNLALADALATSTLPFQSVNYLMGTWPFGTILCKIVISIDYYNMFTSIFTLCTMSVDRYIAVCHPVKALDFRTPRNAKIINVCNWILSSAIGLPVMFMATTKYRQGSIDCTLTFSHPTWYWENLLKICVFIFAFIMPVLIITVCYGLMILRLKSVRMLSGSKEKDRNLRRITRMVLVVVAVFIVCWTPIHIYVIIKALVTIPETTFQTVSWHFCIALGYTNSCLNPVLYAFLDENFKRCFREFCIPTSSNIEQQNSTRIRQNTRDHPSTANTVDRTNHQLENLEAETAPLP
Sequence of Kappa-type opioid receptor (P41145 whole entry): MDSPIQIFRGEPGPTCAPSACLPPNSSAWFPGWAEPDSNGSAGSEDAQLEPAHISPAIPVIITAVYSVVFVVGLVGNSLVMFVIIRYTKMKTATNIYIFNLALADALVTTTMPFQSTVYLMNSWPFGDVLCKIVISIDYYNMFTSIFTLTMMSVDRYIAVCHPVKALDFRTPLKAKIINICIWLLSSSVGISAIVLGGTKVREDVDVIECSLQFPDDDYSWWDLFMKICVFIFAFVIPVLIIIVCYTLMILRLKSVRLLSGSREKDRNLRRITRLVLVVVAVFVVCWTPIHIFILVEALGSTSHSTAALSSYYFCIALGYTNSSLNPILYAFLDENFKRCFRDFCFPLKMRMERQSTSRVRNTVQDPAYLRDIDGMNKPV

SMILES | IC50 [1] [µM] | IC50 [2] [µM] | IC50 [3] [µM]
CC(C)C[C@@H](NC(=O)[C@@H](Cc1ccccc1)NC(=O)[C@H](N)Cc1ccccc1)C(=O)N[C@H](CCCCN)C(=O)NCc1cccc(C(=O)O)n1 [US12215173, Compound 13-6] | > 10 | 0.00945 | > 10
CC(C)C[C@@H](NC(=O)[C@@H](Cc1ccccc1)NC(=O)[C@H](N)Cc1ccccc1)C(=O)N[C@H](CCCCN)C(=O)NCCC[C@H](N)C(=O)O [US12215173, Compound 13-44] | > 10 | 0.00046 | > 10
CC(C)C[C@@H](NC(=O)[C@@H](Cc1ccccc1)NC(=O)[C@H](N)Cc1ccccc1)C(=O)N[C@H](CCCCN)C(=O)N1CCC(O)(CO)CC1 [US12215173, Compound 13-65] | > 10 | 0.00045 | > 10
COC(=O)C1(N)CCN(C(=O)[C@@H](CCCCN)NC(=O)[C@H](NC(=O)[C@@H](Cc2ccccc2)NC(=O)[C@H](N)Cc2ccccc2)C(C)(C)C)CC1 [US12215173, Compound 100] | > 10 | 0.013 | > 10
COC(=O)C1(N)CCN(C(=O)[C@@H](CCCCN)NC(=O)[C@H](NC(=O)[C@@H](Cc2ccccc2)NC(=O)[C@H](N)Cc2ccccc2)C(C)(C)C)C1 (stereo partly specified) [US12215173, Compound 103] | > 10 | 0.0144 | > 10
CC(C)C[C@@H](NC(=O)[C@@H](Cc1ccccc1)NC(=O)[C@H]1Cc2ccccc2CN1)C(=O)N[C@H](CCCCN)C(=O)N1CCC(N)(C(=O)O)C1 (stereo partly drawn) [US12215173, Compound 169] (H-[dTic][dF][dL][dK]-{Pyrrolidino(3-NH2-3-COOH)}) |  | 0.0888 | 
COC(=O)C1(N)CCN(C(=O)[C@@H](CCCCN)NC(=O)[C@@H](CC(C)C)NC(=O)[C@@H](Cc2ccccc2)NC(=O)[C@H]2Cc3ccccc3CN2)CC1 [US12215173, Compound 171] | > 10 | 0.00083 | > 10
CC(C)C[C@@H](NC(=O)[C@@H](Cc1ccccc1)NC(=O)[C@H]1Cc2ccccc2CN1)C(=O)N[C@H](CCCCN)C(=O)N1CCC(N)(C(=O)O)CC1 [US12215173, Compound 172] | > 10 | 0.00402 | > 10
COC(=O)C1(N)CCN(C(=O)[C@@H](CCCCN)NC(=O)[C@@H](CC(C)C)NC(=O)[C@@H](Cc2ccccc2)NC(=O)[C@H](N)Cc2ccc(F)cc2)C1 (stereo partly specified) [US12215173, Compound 181] | > 10 | 0.0004 | > 10
COC(=O)C1(N)CCN(C(=O)[C@@H](CCCCN)NC(=O)[C@@H](CC(C)C)NC(=O)[C@@H](Cc2ccccc2)NC(=O)[C@H](N)Cc2ccc(F)cc2)CC1 [US12215173, Compound 184] | 8.09 | 0.00025 | > 10
COC(=O)C1(N)CCN(C(=O)[C@@H](CCCCN)NC(=O)[C@@H](CC(C)C)NC(=O)[C@@H](Cc2ccccc2)NC(=O)[C@H](N)Cc2ccc(C(F)(F)F)cc2)C1 (stereo partly specified) [US12215173, Compound 194] | 7.34 | 0.00407 | > 10
